{"source": "patent US5733913A", "about": "“6-Aryl pyrido[2,3-d] pyrimidines and naphthyridines for inhibiting protein tyrosine kinase mediated cellular proliferation” (priority 1995, dated 1998)", "key": {"[1]": {"biological_target": "T1, Human EGF receptor tyrosine kinase (Homo sapiens, UniProt P00533)", "T1 construct": "isolated from A431 epidermoid carcinoma cells; endogenous in cells; host or cells: A431 epidermoid carcinoma cells (Triton lysate, wheat germ agglutinin eluate)", "T1 sequence (P00533 25-1210)": "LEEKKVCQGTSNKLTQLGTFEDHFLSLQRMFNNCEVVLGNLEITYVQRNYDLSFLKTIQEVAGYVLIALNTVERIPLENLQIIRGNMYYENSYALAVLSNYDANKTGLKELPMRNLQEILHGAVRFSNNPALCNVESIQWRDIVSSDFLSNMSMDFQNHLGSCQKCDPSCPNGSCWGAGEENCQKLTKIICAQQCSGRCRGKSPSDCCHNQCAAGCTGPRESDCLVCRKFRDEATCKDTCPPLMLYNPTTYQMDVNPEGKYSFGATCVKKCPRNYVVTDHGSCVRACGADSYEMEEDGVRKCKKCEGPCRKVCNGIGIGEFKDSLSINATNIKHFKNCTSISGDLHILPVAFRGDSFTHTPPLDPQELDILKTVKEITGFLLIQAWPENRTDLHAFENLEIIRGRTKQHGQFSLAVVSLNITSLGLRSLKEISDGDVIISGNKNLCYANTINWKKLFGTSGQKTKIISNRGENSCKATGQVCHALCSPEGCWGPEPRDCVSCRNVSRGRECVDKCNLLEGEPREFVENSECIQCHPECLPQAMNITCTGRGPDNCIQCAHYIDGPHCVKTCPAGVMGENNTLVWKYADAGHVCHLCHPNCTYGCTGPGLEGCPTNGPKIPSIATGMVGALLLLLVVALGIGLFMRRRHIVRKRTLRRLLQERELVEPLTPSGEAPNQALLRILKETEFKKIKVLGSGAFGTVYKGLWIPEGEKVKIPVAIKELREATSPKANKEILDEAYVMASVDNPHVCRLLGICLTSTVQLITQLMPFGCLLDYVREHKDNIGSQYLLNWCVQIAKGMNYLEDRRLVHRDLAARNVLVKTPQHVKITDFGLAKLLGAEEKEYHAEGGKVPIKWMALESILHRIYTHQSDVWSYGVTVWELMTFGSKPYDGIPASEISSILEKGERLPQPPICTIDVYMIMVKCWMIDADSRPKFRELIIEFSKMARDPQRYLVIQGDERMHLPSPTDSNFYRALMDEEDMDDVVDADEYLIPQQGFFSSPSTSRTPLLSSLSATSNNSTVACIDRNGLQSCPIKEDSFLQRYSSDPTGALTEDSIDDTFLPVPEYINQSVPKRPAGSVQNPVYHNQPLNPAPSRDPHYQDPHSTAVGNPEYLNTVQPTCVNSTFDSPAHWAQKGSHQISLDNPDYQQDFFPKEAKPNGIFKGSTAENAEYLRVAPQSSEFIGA", "test": "EGF receptor tyrosine kinase assay", "type": "biochemical", "details": "read-out: Inhibition of Protein Tyrosine Kinases, EGF, IC50", "outline": "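Enzyme was purified from A431 cell lysate on wheat germ agglutinin sepharose and eluted with N-acetylglucosamine. Reactions were stopped with 75 mM phosphoric acid. Peptide substrate was captured on phosphocellulose filters, washed and counted by scintillation to derive IC50.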"}, "[2]": {"biological_target": "T2, human FGF-1 (flg) receptor tyrosine kinase (Homo sapiens, UniProt P11362)", "T2 construct": "a fragment of DNA that codes for the intracellular tyrosine kinase domain; made in house; host or cells: Sf9 insect cells (baculovirus), cell lysate", "T2 sequence (P11362 478-767 limits assumed)": "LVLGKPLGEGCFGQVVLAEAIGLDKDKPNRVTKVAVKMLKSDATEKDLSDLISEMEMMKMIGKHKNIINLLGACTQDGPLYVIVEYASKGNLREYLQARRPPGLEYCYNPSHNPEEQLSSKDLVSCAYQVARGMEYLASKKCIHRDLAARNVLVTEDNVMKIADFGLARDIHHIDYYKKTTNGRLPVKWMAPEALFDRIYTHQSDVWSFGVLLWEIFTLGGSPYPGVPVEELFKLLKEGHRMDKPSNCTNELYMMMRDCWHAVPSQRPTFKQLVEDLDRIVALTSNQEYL", "test": "FGF receptor tyrosine kinase assay", "type": "biochemical", "details": "read-out: Inhibition of Protein Tyrosine Kinases, FGF, IC50", "outline": "(§1)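 Intracellular kinase domains expressed in baculovirus-infected SF9 cells; crude lysate used as enzyme. Inhibitor preincubated 10 min at 25 °C with lysate in pH 7.0 Hepes buffer with 10 mM MnCl2 and poly(Glu-Tyr) 4:1, then γ-32P-ATP (50 μM ATP) added for 10 min at 25 °C. TCA-precipitated 32P on filters counted, no-enzyme background subtracted.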"}, "[3]": {"test_system": "Rat aorta smooth muscle cells (RASMC)", "test": "[3H]-Thymidine incorporation assay in RASMC", "type": "cell-based", "details": "read-out: Inhibition of Growth Factor Stimulated Uptake of [3H]-thymidine (IC50)", "procedure": "Cell Culture Rat aorta smooth muscle cells (RASMC) were isolated from the thoracic aorta of rats and explanted according to the method of Ross, J. Cell. Biol., 30:172-186 (1971). Cells were grown in Dulbecco's modified Eagle's medium (DMEM, Gibco) containing 10% fetal calf serum (FBS, Hyclone, Logan, Utah), 1% glutamine (Gibco) and 1% penicillin/streptomycin (Gibco). Cells were identified as smooth muscle cells by their \"hill and valley\" growth pattern and by fluorescent staining with a monoclonal antibody specific for SMC […] (Sigma). RASMC were used between passages 5 and 20 for all experiments. Test compounds were prepared in dimethylsulfoxide (DMSO) in order to achieve consistency in the vehicle and to ensure compound solubility. Appropriate DMSO controls were simultaneously evaluated with the test compounds. […] RASMC were plated into a 24-well plate (30,000 cells/well) in DMEM with 10% FBS. After 4 days, cells reached confluence and were made quiescent by incubation in DMEM/F12 medium (Gibco) containing 0.2% FBS for another 2 days. […] […] The acid-insoluble fraction was lysed in 0.75 mL 0.25N NaOH and the radioactivity determined by liquid scintillation counting. IC50 values were determined graphically."}, "[4]": {"biological_target": "T3, mouse PDGF-β receptor tyrosine kinase (Mus musculus, UniProt P05622)", "T3 construct": "a fragment of DNA that codes for the intracellular tyrosine kinase domain; made in house; host or cells: Sf9 insect cells (baculovirus), cell lysate", "T3 sequence (P05622 599-961 limits assumed)": "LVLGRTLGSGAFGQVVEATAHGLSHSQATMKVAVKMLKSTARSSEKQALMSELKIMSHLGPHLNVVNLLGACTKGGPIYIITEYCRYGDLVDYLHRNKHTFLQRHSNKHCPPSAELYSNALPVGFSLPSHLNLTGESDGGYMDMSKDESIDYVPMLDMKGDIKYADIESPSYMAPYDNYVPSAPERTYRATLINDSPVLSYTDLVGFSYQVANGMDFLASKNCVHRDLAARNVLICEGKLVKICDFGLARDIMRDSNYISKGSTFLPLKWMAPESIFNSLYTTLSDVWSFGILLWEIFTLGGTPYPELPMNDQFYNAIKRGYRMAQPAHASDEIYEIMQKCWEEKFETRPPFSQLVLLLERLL", "test": "PDGF receptor tyrosine kinase assay", "type": "biochemical", "details": "read-out: Inhibition of Protein Tyrosine Kinases, PDGF, IC50", "outline": "as §1"}}, "note": "Read-outs that look alike come from different tables or passages of the source.", "data": [{"smiles": "Cc1ccccc1-c1cc2cnc(N)nc2nc1N", "note": "[Example 90, 6-o-Tolyl-pyrido[2,3-d]pyrimidine-2,7-diamine]", "values": [{"measurement": "IC50", "setting": "[1]", "value": 22.8, "unit": "µM"}, {"measurement": "IC50", "setting": "[2]", "value": 11.5, "unit": "µM"}, {"measurement": "IC50", "setting": "[3]; FGF stimulated", "value": 20, "unit": "µM"}, {"measurement": "IC50", "setting": "[3]; PDGF stimulated", "value": "> 10", "unit": "µM"}, {"measurement": "IC50", "setting": "[4]", "value": 8.01, "unit": "µM"}]}]}
